Laboratory results from patent US12673946B2, “Pyrimidin-4(3H)-one derivatives as TRPV4 antagonists” (RaQualia Pharma Inc., priority 2020, dated 2026).

Molecular target: T1, human TRPV4 (Homo sapiens, UniProt Q9HBA0)
T1 construct: host or cells: tetracycline-inducible Flp-In T-REx 293 cells
Assay: Hypotonicity-induced Ca2+ influx (Fluo-4, FDSS)
Format: cell-based
Experimental: Hypotonicity-Induced Ca^2+ Influx
TRPV4 channel activation/opening results in an influx of Ca^2+ (Liedtke, W. et al., 2000 (NPL 1)). The resulting changes in intracellular calcium are monitored using a Ca^2+ sensitive fluorescent dye Fluo-4 (Invitrogen). Dye loaded cells are treated with the test compounds for 5 minutes prior to the addition of a hypotonic solution and the inhibition of the hypotonicity-induced activation is recorded.
Forty microL of tetracycline-inducible Flp-In T-REx 293 cells (Invitrogen) stably expressing human TRPV4 are seeded onto the poly-D-lysine coated 384-well plate (Corning) at a density of 10,000 cells per well. The following day, TRPV4 expression is induced by adding 0.5 microg/mL tetracycline for 20-24 hours. On the day of the experiment, the media is removed and replaced with 40 microL of dye loading buffer [1 microM Fluo-4 AM (Invitrogen), 0.01% Pluronic F-127, and 20 mM HEPES in Hanks' balanced salt solutions (HBSS; Invitrogen)] and then the cells are incubated for 60 minutes at 25° C. Dye is then removed and replaced with 20 microL of assay buffer (20 mM HEPES in HBSS). Five minutes prior to the fluorescence measurement, 10 microL of test compound is added to the cells. Using the FDSS instrument (Hamamatsu Photonics), 30 microL of hypotonic solution (90 mM D-mannitol and 1.26 mM CaCl2 in ultrapure water) is added 30 seconds after the start of measurement. The calcium flux signal is recorded for a total of 4.5 minutes.

[1] = Flp-In T-REx 293 cells expressing human TRPV4, examples listed under heading 'Human IC50<50 nM'
[2] = Flp-In T-REx 293 cells stably expressing human TRPV4, compounds listed by potency bin (<10 nM Tables 96-1/96-2, <3 nM Table 97)

T1 sequence (Q9HBA0 whole entry): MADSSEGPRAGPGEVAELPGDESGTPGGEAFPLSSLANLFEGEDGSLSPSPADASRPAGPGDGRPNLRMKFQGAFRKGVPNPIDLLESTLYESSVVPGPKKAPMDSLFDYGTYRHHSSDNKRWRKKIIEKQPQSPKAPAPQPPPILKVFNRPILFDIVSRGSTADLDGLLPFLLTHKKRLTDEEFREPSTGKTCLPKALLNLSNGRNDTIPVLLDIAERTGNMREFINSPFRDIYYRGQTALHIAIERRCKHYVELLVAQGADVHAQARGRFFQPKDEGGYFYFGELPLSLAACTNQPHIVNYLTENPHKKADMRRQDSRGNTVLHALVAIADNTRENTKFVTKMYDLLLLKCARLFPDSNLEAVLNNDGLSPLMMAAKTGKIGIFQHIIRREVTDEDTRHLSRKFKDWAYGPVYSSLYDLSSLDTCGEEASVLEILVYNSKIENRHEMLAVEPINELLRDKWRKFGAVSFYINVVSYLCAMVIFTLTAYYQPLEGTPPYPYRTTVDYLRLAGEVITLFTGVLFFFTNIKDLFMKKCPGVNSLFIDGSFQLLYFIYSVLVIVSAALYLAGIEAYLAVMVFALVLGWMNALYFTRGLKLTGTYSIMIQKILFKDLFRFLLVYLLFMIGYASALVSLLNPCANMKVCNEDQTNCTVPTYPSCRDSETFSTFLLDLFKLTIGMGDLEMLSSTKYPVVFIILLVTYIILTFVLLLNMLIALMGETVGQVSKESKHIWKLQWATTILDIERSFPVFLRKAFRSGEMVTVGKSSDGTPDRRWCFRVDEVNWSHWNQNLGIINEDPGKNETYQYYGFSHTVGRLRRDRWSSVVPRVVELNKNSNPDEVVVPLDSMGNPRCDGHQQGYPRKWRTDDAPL

Row | IC50 [1] [nM] | IC50 [2] [nM] | Structure (SMILES)
1 | < 50 |  | Cc1ccc(-c2cccc(C(O)C(=O)N3CCc4nc(C5(c6ccccc6)CC5)[nH]c(=O)c4C3)c2)cc1F (stereo not shown) [44-34]
2 | < 50 |  | CC(C)(C)c1cccc(C(O)C(=O)N2CCc3nc(C4(c5ccccc5)CC4)[nH]c(=O)c3C2)c1 (stereo not shown) [14-30]
3 | < 50 |  | O=C(C(O)c1cccc(-c2cc(F)ccc2F)c1)N1CCc2nc(C3(c4ccccc4)CC3)[nH]c(=O)c2C1 (stereo not shown) [44-48]
4 | < 50 | < 3 | C=C(C)c1cccc(C2(c3nc4c(c(=O)[nH]3)CN(C(=O)[C@H](O)c3cccc(C(F)(F)F)c3)CCC4)CC2)c1 [17-1]
5 | < 50 | < 10 | O=C([C@H](O)c1cccc(Cl)c1)N1CCc2nc(C3(c4cc(C5CCC(F)(F)CC5)cs4)CC3)[nH]c(=O)c2C1 [23-1, (R)-6-(2-(3-chlorophenyl)-2-hydroxyacetyl)-2-(1-(4-(4,4-difluorocyclohexyl)thiophen-2-yl)cyclopropyl)-5,6,7,8-tetrahydropyrido[4,3-d]pyrimidin-4(3H)-one]
6 | < 50 | < 3 | COCCOc1cccc(-c2cccc(C3(c4nc5c(c(=O)[nH]4)CN(C(=O)[C@H](O)c4cccc(Cl)c4)CCC5)CC3)c2)c1 [40-22]
7 | < 50 | < 10 | O=C([C@H](O)c1cccc(C(F)(F)F)c1)N1CCCc2nc(C3(c4cccc(C5=CCN(S(=O)(=O)c6ccc(F)cc6)CC5)c4)CC3)[nH]c(=O)c2C1 [42-75]
8 | < 50 | < 10 | O=C(Cc1cccc(S(F)(F)(F)(F)F)c1)N1CCCc2nc(C3(c4cccc(Cl)c4)CC3)[nH]c(=O)c2C1 [17-114]
9 | < 50 |  | O=C(Cc1ccc2ccccc2c1)N1CCCc2nc(C3(c4cccc(Cl)c4)CC3)[nH]c(=O)c2C1 [17-115]
10 | < 50 | < 10 | CC(C)c1cncc(C2(c3nc4c(c(=O)[nH]3)CN(C(=O)[C@H](O)c3cccc(C(F)(F)F)c3)CCC4)CC2)c1 [19-2]
11 | < 50 |  | CC(C)(C)c1cccc(-c2cccc(C(O)C(=O)N3CCc4nc(C5(c6ccccc6)CC5)[nH]c(=O)c4C3)n2)c1 (stereo not shown) [48-9]
12 | < 50 | < 10 | Cc1ccc(-c2cccc([C@@H](O)C(=O)N3CCc4nc(C5(c6ccccc6)CC5)[nH]c(=O)c4C3)c2)cc1Cl [44-94]
13 | < 50 |  | O=C(C(O)c1cccc(-c2cccc(Cl)c2)n1)N1CCc2nc(C3(c4ccccc4)CC3)[nH]c(=O)c2C1 (stereo not shown) [48-8]
14 | < 50 | < 10 | O=C(C(O)c1cccc(C(F)(F)F)c1F)N1CCCc2nc(C3(c4ccccc4)CC3)[nH]c(=O)c2C1 (stereo not shown) [17-20]
15 | < 50 | < 3 | O=C([C@H](O)c1cccc(-c2ccnc(C(F)(F)F)c2)c1)N1CCCc2nc(C3(c4cccc(Cl)c4)CC3)[nH]c(=O)c2C1 [50-11]
16 | < 50 | < 10 | O=C([C@H](O)c1cccc(-c2cccc(Cl)c2)c1)N1CCc2nc(C3(c4ccccc4)CC3)[nH]c(=O)c2C1 [44-73]
17 | < 50 | < 10 | O=C([C@H](O)c1cccc(C(F)(F)F)c1)N1CCCc2nc(C3(c4cccc(C5=CCN(C(=O)N6CCCCC6)CC5)c4)CC3)[nH]c(=O)c2C1 [42-73]
18 | < 50 |  | O=C(C(O)c1cccc(-c2ccc(C(F)(F)F)nc2)c1)N1CCc2nc(C3(c4ccccc4)CC3)[nH]c(=O)c2C1 (stereo not shown) [44-41]
19 | < 50 | < 3 | O=C([C@H](O)c1cccc(C(F)(F)F)c1)N1CCCc2nc(C3(c4cccc(-c5cnn(C6CC6)c5)c4)CC3)[nH]c(=O)c2C1 [42-6]
20 | < 50 | < 10 | O=C([C@H](O)c1cccc(-c2cccc(C(F)(F)F)c2)c1)N1CCc2nc(C3(c4cccc(Cl)c4)CC3)[nH]c(=O)c2C1 [45-4]
21 | < 50 | < 3 | COc1ccc(C(=O)N2CC=C(c3cccc(C4(c5nc6c(c(=O)[nH]5)CN(C(=O)[C@H](O)c5cccc(C(F)(F)F)c5)CCC6)CC4)c3)CC2)cc1OC1CCCC1 [42-82]
22 | < 50 |  | CC(C)(C)c1ccc(-c2cccc(CC(=O)N3CCc4nc(C5(c6cccc(Cl)c6)CC5)[nH]c(=O)c4C3)c2)cc1 [14-116]
23 | < 50 | < 10 | O=C([C@H](O)c1cccc(-c2csc3ccccc23)c1)N1CCCc2nc(C3(c4cc(C5CCCCC5)cs4)CC3)[nH]c(=O)c2C1 [54-8]
24 | < 50 |  | CC(C)c1cccc(C2(c3nc4c(c(=O)[nH]3)CN(C(=O)C(F)(F)c3cccc(Cl)c3)CC4)CC2)c1 [20-14]
25 | < 50 | < 10 | O=C(Cc1cccc(-c2cccc(C(F)(F)F)c2)c1)N1CCc2nc(C3(c4cccc(C5CCCCC5)c4)CC3)[nH]c(=O)c2C1 [27-4]
26 | < 50 | < 10 | O=C(C(O)c1cccc(-c2ccc(OC(F)(F)F)cc2)c1)N1CCCc2nc(C3(c4ccccc4)CC3)[nH]c(=O)c2C1 (stereo not shown) [49-11]

Row | IC50 [1] [nM] | IC50 [2] [nM] | Structure (SMILES)
27 | < 50 | < 10 | O=C([C@H](O)c1cccc(-c2cccc(OCc3ccccc3)c2)c1)N1CCCc2nc(C3(c4ccccc4)CC3)[nH]c(=O)c2C1 [49-26]
28 | < 50 | < 10 | CN(Cc1ccc2ccccc2c1)C(=O)c1csc(C2(c3nc4c(c(=O)[nH]3)CN(C(=O)[C@H](O)c3cccc(C(F)(F)F)c3)CCC4)CC2)c1 [59-17]
29 | < 50 | < 10 | Cn1nccc1-c1cccc(C2(c3nc4c(c(=O)[nH]3)CN(C(=O)[C@H](O)c3cccc(C(F)(F)F)c3)CCC4)CC2)c1 [42-26]
30 | < 50 | < 10 | O=C([C@H](O)c1cccc(-c2cccc(OC(F)(F)F)c2)c1)N1CCCc2nc(C3(c4cc(C5CCCCC5)cs4)CC3)[nH]c(=O)c2C1 [54-11]
31 | < 50 | < 10 | O=C(C(O)c1cccc(SC(F)(F)F)c1)N1CCCc2nc(C3(c4ccccc4)CC3)[nH]c(=O)c2C1 (stereo not shown) [17-38]
32 | < 50 | < 10 | O=C([C@H](O)c1cccc(-c2cccc(OC(F)(F)F)c2)c1)N1CCCc2c(nc(C3(c4ccccc4)CC3)[nH]c2=O)C1 [49-56]
33 | < 50 | < 10 | O=C([C@H](O)c1cccc(-c2cc(F)cc(Cl)c2)c1)N1CCCc2nc(C3(c4cccc(-c5csc6ccccc56)c4)CC3)[nH]c(=O)c2C1 [52-14]
34 | < 50 |  | O=C(C(O)c1cccc(C2CC2)c1)N1CCCc2nc(C3(c4cccc(F)c4)CC3)[nH]c(=O)c2C1 (stereo not shown) [17-53]
35 | < 50 | < 3 | O=C([C@H](O)c1cccc(Cl)c1)N1CCCc2nc(C3(c4cccc(-c5csc6ccccc56)c4)CC3)[nH]c(=O)c2C1 [40-11]
36 | < 50 | < 10 | O=C(C(O)c1cccc(-c2cccc(OC(F)(F)F)c2)n1)N1CCc2nc(C3(c4ccccc4)CC3)[nH]c(=O)c2C1 (stereo not shown) [48-2]
37 | < 50 | < 10 | O=C([C@H](O)c1cccc(C(F)(F)F)c1)N1CCCc2nc(C3(c4cccc(-c5cncs5)c4)CC3)[nH]c(=O)c2C1 [42-25]
38 | < 50 |  | O=C(C(O)c1cccc(OCC(F)(F)F)c1)N1CCCc2nc(C3(c4cccc(Cl)c4)CC3)[nH]c(=O)c2C1 (stereo not shown) [17-50]
39 | < 50 | < 10 | N#Cc1cc(C#N)cc(-c2cccc(C3(c4nc5c(c(=O)[nH]4)CN(C(=O)[C@H](O)c4cccc(C(F)(F)F)c4)CCC5)CC3)c2)c1 [42-71]
40 | < 50 | < 10 | O=C([C@H](O)c1cccc(-c2cc3ccccc3s2)c1)N1CCCc2nc(C3(c4cccc(Cl)c4)CC3)[nH]c(=O)c2C1 [50-2]
41 | < 50 | < 3 | N#Cc1cccc(-c2cccc(C3(c4nc5c(c(=O)[nH]4)CN(C(=O)[C@H](O)c4cccc(Cl)c4)CCC5)CC3)c2)c1 [40-21]
42 | < 50 |  | O=C(C(O)c1cccc(-c2cccc(C(F)(F)F)c2)c1F)N1CCc2nc(C3(c4ccccc4)CC3)[nH]c(=O)c2C1 (stereo not shown) [44-22]
43 | < 50 |  | O=C([C@H](O)c1cccc(C(F)(F)F)c1)N1CCc2nc(C3(c4cccc(F)c4)CC3)[nH]c(=O)c2C1 [3-73]
44 | < 50 | < 10 | O=C(Cc1cccc2ccccc12)N1CCCc2nc(C3(c4cccc(Cl)c4)CC3)[nH]c(=O)c2C1 [17-120]
45 | < 50 | < 10 | O=C(C(O)c1cccc(-c2cccc(F)c2)c1)N1CCCc2nc(C3(c4ccccc4)CC3)[nH]c(=O)c2C1 (stereo not shown) [49-9]
46 | < 50 | < 3 | CC(C)c1cncc(C2(c3nc4c(c(=O)[nH]3)CN(C(=O)[C@H](O)c3cccc(-c5cccc(Cl)c5)c3)CCC4)CC2)c1 [55-8]
47 | < 50 | < 10 | O=C(N1CCCc2nc(C3(c4cccs4)CC3)[nH]c(=O)c2C1)C(F)(F)c1cccc(Cl)c1 [21-2]
48 | < 50 | < 10 | O=C(Cc1cccc(-c2cccc(C(F)(F)F)c2)c1)N1CCCc2nc(C3(c4cncc(-c5ccccc5)c4)CC3)[nH]c(=O)c2C1 [19-14]
49 | < 50 | < 3 | N#Cc1cc(Cl)cc(-c2cccc(CC(=O)N3CCCc4nc(C5(c6cccc(Cl)c6)CC5)[nH]c(=O)c4C3)c2)c1 [17-119]
50 | < 50 | < 10 | CC(C)c1cccc(C2(c3nc4c(c(=O)[nH]3)CN(C(=O)C(O)c3cccc(C(F)(F)F)c3F)CCC4)CC2)c1 (stereo not shown) [17-9]
51 | < 50 |  | O=C([C@H](O)c1cccc(-c2ccc3cccnc3c2)c1)N1CCc2nc(C3(c4ccccc4)CC3)[nH]c(=O)c2C1 [44-90]
